Results on 30 compounds are retold here after US10766869B2, “Triazoles for the treatment of demyelinating dieases” (Vertex Pharmaceuticals Incorporated, priority 2015, dated 2020).

This test deals with primary rat mixed cortical cells. The test can be described thus: In vitro myelination assay (MBP positive myelin strands, fold myelin pixels above background). The format is cell-based. To be noted: Rattus norvegicus, relative to baseline of no added compound; for fold induction at 1 µM: 1.0 μM compound, read-out: Fold myelin pixels above background, 1.0 μM; for fold induction at 10 µM: 10.0 μM compound, read-out: Fold myelin pixels above background, 10.0 μM. Summed up: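 Fourteen-day treatment of primary P1 rat mixed cortical cultures, re-dosed at days 6 and 10, at 1.0 μM and 10.0 μM. MBP immunofluorescence was imaged at 10× and myelin strands quantified by software, normalised to untreated wells as fold above background.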

SMILES strings stand for the structures. Some results are limits rather than exact numbers.

For the compound `Fc1ccc(-n2cnc(Nc3cc(C4CC4)nc(N4CCOCC4)c3)n2)cc1F` [Compound 88, 2-cyclopropyl-N-[1-(3,4-difluorophenyl)-1,2,4-triazol-3-yl]-6-morpholino-pyridin-4-amine], the fold induction at 1 µM was in the range of 1000 to 10000 and the fold induction at 10 µM lay within 1000 to 10000.
As to `Cc1cc(Nc2ncn(-c3ccccc3)n2)cc(N2CCS(=O)(=O)CC2)c1` [Compound 89, N-[3-(1,1-dioxo-1,4-thiazinan-4-yl)-5-methyl-phenyl]-1-phenyl-1,2,4-triazol-3-amine], the fold induction at 1 µM lay in the range of 1000 to 10000 and the fold induction at 10 µM fell in the range of 100 to 1000.
For `CC(=O)N1CCC(c2cc(C)cc(Nc3ncn(-c4cc(F)cc(F)c4)n3)c2)CC1` [Compound 90, 1-[4-[3-[[1-(3,5-difluorophenyl)-1,2,4-triazol-3-yl]amino]-5-methyl-phenyl]-1-piperidyl]ethanone], in that order: 100 to 1000 and 1 to 10.
For `CCc1cc(Nc2ncn(-c3ccnc(C)n3)n2)cc(N2CCN(C3COC3)CC2)c1` [Compound 91, N-[3-ethyl-5-[4-(oxetan-3-yl)piperazin-1-yl]phenyl]-1-(2-methylpyrimidin-4-yl)-1,2,4-triazol-3-amine], the fold induction at 1 µM is at most 1 and the fold induction at 10 µM lay in the range of 100 to 1000.
`Cc1cc(Nc2ncn(-c3cc(F)cc(F)c3)n2)cc(N2CCNCC2=O)c1` [Compound 93, 1-[3-[[1-(3,5-difluorophenyl)-1,2,4-triazol-3-yl]amino]-5-methyl-phenyl]piperazin-2-one]: the fold induction at 1 µM lay within 10 to 100 and the fold induction at 10 µM lay in the range of 100 to 1000.
Take `COc1cccc(-n2cnc(Nc3cc(C)cc(N4CCN(C)CC4)c3)n2)c1` [Compound 94, 1-(3-methoxyphenyl)-N-[3-methyl-5-(4-methylpiperazin-1-yl)phenyl]-1,2,4-triazol-3-amine]: the fold induction at 1 µM was 100 to 1000 and the fold induction at 10 µM is 1 to 10.
For `Cc1cc(Nc2ncn(-c3cc(F)cc(F)c3)n2)cc(N2CCN(C3CSC3)CC2)c1` [Compound 95, 1-(3,5-difluorophenyl)-N-[3-methyl-5-[4-(thietan-3-yl)piperazin-1-yl]phenyl]-1,2,4-triazol-3-amine], in that order: 10 to 100 and at most 1.
For the compound `CN1CCN(c2cc(Nc3ncn(-c4ccncn4)n3)cc(C(F)(F)F)c2)CC1` [Compound 96, N-[3-(4-methylpiperazin-1-yl)-5-(trifluoromethyl)phenyl]-1-pyrimidin-4-yl-1,2,4-triazol-3-amine], the fold induction at 1 µM was 100 to 1000 and the fold induction at 10 µM was 100 to 1000.
With `CC(C)(C)c1cc(Nc2ncn(-c3cccc(F)c3)n2)cc(N2CCN(C3COC3)CC2)c1` [Compound 97, N-[3-tert-butyl-5-[4-(oxetan-3-yl)piperazin-1-yl]phenyl]-1-(3-fluorophenyl)-1,2,4-triazol-3-amine], the fold induction at 1 µM was in the range of 100 to 1000 and the fold induction at 10 µM lay in the range of 100 to 1000.
Turning to `CN1CCCN(c2cc(F)cc(Nc3ncn(-c4cccc(F)c4)n3)c2)CC1` [Compound 98, N-[3-fluoro-5-(4-methyl-1,4-diazepan-1-yl)phenyl]-1-(3-fluorophenyl)-1,2,4-triazol-3-amine], the fold induction at 1 µM fell in the range of 10 to 100 and the fold induction at 10 µM was at most 1.
For the compound `Fc1cc(Nc2ncn(-c3ccc(F)c(F)c3)n2)cc(N2CCCC2)c1` [Compound 99, 1-(3,4-difluorophenyl)-N-(3-fluoro-5-pyrrolidin-1-yl-phenyl)-1,2,4-triazol-3-amine], the fold induction at 1 µM is at most 1 and the fold induction at 10 µM is at most 1.
For `Fc1ccc(-n2cnc(Nc3cc(Cl)nc(N4CCOCC4)c3)n2)cc1F` [Compound 100, 2-chloro-N-[1-(3,4-difluorophenyl)-1,2,4-triazol-3-yl]-6-morpholino-pyridin-4-amine], the fold induction at 1 µM was in the range of 100 to 1000 and the fold induction at 10 µM lay within 100 to 1000.
For the compound `COc1cc(Nc2ncn(-c3ccc(F)cc3)n2)cc(N2CCN(C3COC3)CC2)c1` [Compound 102, 1-(4-fluorophenyl)-N-[3-methoxy-5-[4-(oxetan-3-yl)piperazin-1-yl]phenyl]-1,2,4-triazol-3-amine], the fold induction at 1 µM is 100 to 1000 and the fold induction at 10 µM was 1 to 10.
For `CCC1CCCN1c1cc(F)cc(-n2cnc(Nc3cc(C)cc(N4CCN(C5COC5)CC4)c3)n2)c1` (stereo not drawn) [Compound 103, 1-[3-(2-ethylpyrrolidin-1-yl)-5-fluoro-phenyl]-N-[3-methyl-5-[4-(oxetan-3-yl)piperazin-1-yl]phenyl]-1,2,4-triazol-3-amine], the fold induction at 1 µM was in the range of 100 to 1000 and the fold induction at 10 µM was at most 1.
As to `Cc1cc(Nc2ncn(-c3ccccn3)n2)cc(N2CCN(C3COC3)CC2)c1` [Compound 104, N-[3-methyl-5-[4-(oxetan-3-yl)piperazin-1-yl]phenyl]-1-(2-pyridyl)-1,2,4-triazol-3-amine], the fold induction at 1 µM is 10 to 100 and the fold induction at 10 µM was 100 to 1000.
For `Fc1cc(F)cc(-n2cnc(Nc3cc(C4CC4)nc(N4CC[C@@H](F)C4)c3)n2)c1` [Compound 105, 2-cyclopropyl-N-[1-(3,5-difluorophenyl)-1,2,4-triazol-3-yl]-6-[(3R)-3-fluoropyrrolidin-1-yl]pyridin-4-amine], in that order: 100 to 1000 and 1 to 10.
For `COc1cccc(-n2cnc(Nc3cc(Cl)nc(N4CCCCC4)c3)n2)c1` [Compound 106, 2-chloro-N-[1-(3-methoxyphenyl)-1,2,4-triazol-3-yl]-6-(1-piperidyl)pyridin-4-amine], in that order: at most 1 and 1 to 10.
For `Cc1cc(Nc2ncn(-c3cc(F)cc(F)c3)n2)cc(C2CCNCC2)c1` [Compound 108, 1-(3,5-difluorophenyl)-N-[3-methyl-5-(4-piperidyl)phenyl]-1,2,4-triazol-3-amine], in that order: 10 to 100 and at most 1.
`CN(C)C1CCN(c2cc(F)cc(Nc3ncn(-c4cccc(F)c4)n3)c2)C1` (stereo not drawn) [Compound 109, N-[3-[3-(dimethylamino)pyrrolidin-1-yl]-5-fluoro-phenyl]-1-(3-fluorophenyl)-1,2,4-triazol-3-amine]: the fold induction at 1 µM lay in the range of 10 to 100 and the fold induction at 10 µM is at most 1.
For the compound `Cc1cc(Nc2ncn(-c3ccccc3)n2)cc(N2CCCC2)c1` [Compound 110, N-(3-methyl-5-pyrrolidin-1-yl-phenyl)-1-phenyl-1,2,4-triazol-3-amine], the fold induction at 1 µM lay in the range of 100 to 1000 and the fold induction at 10 µM is 1 to 10.
For `Cc1cc(Nc2ncn(-c3cc(C)ncn3)n2)cc(N2CCN(C3COC3)CC2)c1` [Compound 111, N-[3-methyl-5-[4-(oxetan-3-yl)piperazin-1-yl]phenyl]-1-(6-methylpyrimidin-4-yl)-1,2,4-triazol-3-amine], in that order: 10 to 100 and 100 to 1000.
For the compound `Fc1cc(Nc2ncn(-c3cc(F)cc(F)c3)n2)cc(N2CCN(C3COC3)CC2)c1` [Compound 112, 1-(3,5-difluorophenyl)-N-[3-fluoro-5-[4-(oxetan-3-yl)piperazin-1-yl]phenyl]-1,2,4-triazol-3-amine], the fold induction at 1 µM fell in the range of 1000 to 10000 and the fold induction at 10 µM lay within 100 to 1000.
For `Cc1cc(Nc2ncn(-c3ccc(F)c(F)c3)n2)cc(NC2CCN(C3COC3)C2)c1` (stereo not drawn) [Compound 113, N3-[1-(3,4-difluorophenyl)-1,2,4-triazol-3-yl]-5-methyl-N1-[1-(oxetan-3-yl)pyrrolidin-3-yl]benzene-1,3-diamine], in that order: 1000 to 10000 and at most 1.
For `Cc1cc(Nc2ncn(-c3cc(F)cc(F)c3)n2)cc(N2CCCC(N3CCCC3=O)C2)c1` (stereo not drawn) [Compound 114, 1-[1-[3-[[1-(3,5-difluorophenyl)-1,2,4-triazol-3-yl]amino]-5-methyl-phenyl]-3-piperidyl]pyrrolidin-2-one], in that order: 10 to 100 and 10 to 100.
With `CC(=O)N1CCCC(Nc2cc(C)cc(Nc3ncn(-c4ccccc4)n3)c2)C1` (stereo not drawn) [Compound 115, 1-[3-[3-methyl-5-[(1-phenyl-1,2,4-triazol-3-yl)amino]anilino]-1-piperidyl]ethanone], the fold induction at 1 µM lay within 100 to 1000 and the fold induction at 10 µM lay in the range of 100 to 1000.
On to `COCC1CN(c2cc(C)cc(Nc3ncn(-c4cc(F)cc(F)c4)n3)c2)C1` [Compound 116, 1-(3,5-difluorophenyl)-N-[3-[3-(methoxymethyl)azetidin-1-yl]-5-methyl-phenyl]-1,2,4-triazol-3-amine], for which the fold induction at 1 µM was at most 1 and the fold induction at 10 µM was at most 1.
For the compound `CC(=O)N1CCCC(c2cc(C)cc(Nc3ncn(-c4ccccc4)n3)c2)C1` (stereo not drawn) [Compound 117, 1-[3-[3-methyl-5-[(1-phenyl-1,2,4-triazol-3-yl)amino]phenyl]-1-piperidyl]ethanone], the fold induction at 1 µM fell in the range of 1000 to 10000 and the fold induction at 10 µM is at most 1.
For `Cc1cc(Nc2ncn(-c3ccccc3)n2)cc(N2CCN(C3COC3)CC2)c1` [Compound 118, N-[3-methyl-5-[4-(oxetan-3-yl)piperazin-1-yl]phenyl]-1-phenyl-1,2,4-triazol-3-amine], in that order: 100 to 1000 and 10 to 100.
For `Cc1cc(Nc2ncn(-c3cc(F)cc(F)c3)n2)cc(N2CCN(C)C(C)C2)c1` (stereo not drawn) [Compound 119, 1-(3,5-difluorophenyl)-N-[3-(3,4-dimethylpiperazin-1-yl)-5-methyl-phenyl]-1,2,4-triazol-3-amine], the fold induction at 1 µM is 100 to 1000 and the fold induction at 10 µM is 10 to 100.
As to `Cc1cc(Nc2ncn(-c3ccccc3)n2)cc(C2CCN(C3CC3)CC2)c1` [Compound 120, N-[3-(1-cyclopropyl-4-piperidyl)-5-methyl-phenyl]-1-phenyl-1,2,4-triazol-3-amine], the fold induction at 1 µM lay in the range of 1000 to 10000 and the fold induction at 10 µM was at most 1.
